Measurements published in patent publication US10294202B2, “Pyrrolidinones as herbicides” (FMC Corporation, priority 2013, dated 2019).

Tests used:
giant foxtail = experiment: Test A pre-/postemergence herbicide test; format: in vivo, Setaria faberii
Summary of the method: (§1)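 Visual injury ratings, 0 = no effect, 100 = complete control, taken ~10 days after treatment against untreated greenhouse controls. Preemergence: directed soil spray onto seeded loam/sand pots. Postemergence: spray onto plants at one- to two-leaf stage, 2–10 cm tall.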

pigweed = experiment: Test A pre-/postemergence herbicide test; format: in vivo, Amaranthus retroflexus
Summary of the method: as §1

wheat = experiment: Test A pre-/postemergence herbicide test; format: in vivo, Triticum aestivum; details: Postemergence
Summary of the method: as §1

sedge, umbrella = experiment: Test B flooded paddy test; format: in vivo, Cyperus difformis; details: 500 g ai/ha, Flood; scale of 0 to 100 where 0 is no effect and 100 is complete control
Summary of the method: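 Plants were grown to the 2-leaf stage, then pots were flooded to 3 cm above the soil and compound was applied directly into the paddy water, with that depth held throughout. After 13 to 15 days in a greenhouse, injury was rated visually against untreated controls on a 0 to 100 scale (100 = complete control).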

blackgrass = experiment: Test C pre-/postemergence herbicide test; format: in vivo, Alopecurus myosuroides
Summary of the method: (§2)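 Pre- and postemergence greenhouse screen. Preemergence treatment went onto freshly planted seeds in loam–sand soil; postemergence treatment went onto plants 2 to 18 cm tall at the 1- to 4-leaf stage in sphagnum peat/vermiculite medium. Scoring at 13 to 15 days used a 0–100 control scale.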

ryegrass, Italian = experiment: Test C pre-/postemergence herbicide test; format: in vivo, Lolium multiflorum
Summary of the method: as §2

crabgrass, large = experiment: Test C pre-/postemergence herbicide test; format: in vivo, Digitaria sanguinalis
Summary of the method: as §2

foxtail, giant = experiment: Test C pre-/postemergence herbicide test; format: in vivo, Setaria faberii
Summary of the method: as §2

johnsongrass = experiment: Test C pre-/postemergence herbicide test; format: in vivo, Sorghum halepense
Summary of the method: as §2

nutsedge, yellow = experiment: Test C pre-/postemergence herbicide test; format: in vivo, Cyperus esculentus
Summary of the method: as §2

ragweed = experiment: Test C pre-/postemergence herbicide test; format: in vivo, Ambrosia elatior
Summary of the method: as §2

[1] = Postemergence, 125 g ai/ha, visual rating on 0 to 100 scale (0 no effect, 100 complete control), approx. 10 days
[2] = Postemergence, 500 g ai/ha, 0 to 100 scale (0 no effect, 100 complete control)
[3] = Preemergence, 125 g ai/ha, 0 to 100 scale where 0 is no effect and 100 is complete control
[4] = Preemergence, 500 g ai/ha, visual rating on 0 to 100 scale (0 no effect, 100 complete control)
[5] = Postemergence, 31 g ai/ha, scale 0 to 100 (0 no effect, 100 complete control)
[6] = Postemergence, 62 g ai/ha, scale 0 (no effect) to 100 (complete control)
[7] = Postemergence, 125 g ai/ha, scale 0 to 100 (0 no effect, 100 complete control)
[8] = Postemergence, 250 g ai/ha, scale 0 to 100 (0 no effect, 100 complete control)
[9] = Preemergence, 31 g ai/ha, scale 0 to 100, 0 is no effect and 100 is complete control
[10] = Preemergence, 62 g ai/ha, scale 0 to 100 (0 no effect, 100 complete control)
[11] = Preemergence, 125 g ai/ha, scale 0 to 100

O=C1NCC(c2cccc(Br)c2)C1C(=O)Nc1ccc(F)c(F)c1F (centres unmarked) [Compound 310]
75: Plant response rating (scale of 0 to 100), Johnsongrass (johnsongrass; Preemergence, 250 g ai/ha)
5: Plant response rating, Blackgrass (blackgrass; [7]) | Plant response rating, Blackgrass (blackgrass; [8]) | Blackgrass plant response rating (blackgrass; [10]) | Plant response rating, Ryegrass, Italian (ryegrass, Italian; [8]) | Plant response rating, Foxtail, Giant (foxtail, giant; [6]) | Plant response rating, Johnsongrass (johnsongrass; [8]) | Plant response rating, Ragweed (ragweed; [11])
30: Plant response rating, Wheat (wheat; 125 g ai/ha, visual rating on 0 to 100 scale (0 no effect, 100 complete control), approx. 10 days) | Plant response rating, Foxtail, Giant (foxtail, giant; [7])
60: Plant response rating, Ragweed (ragweed; [8])
0: Plant response rating, Pigweed (pigweed; [1]) | Plant response rating, Pigweed (pigweed; [2]) | Plant response rating, Sedge, Umbrella (sedge, umbrella) | Plant response rating, Blackgrass (blackgrass; [5]) | Plant response rating, Blackgrass (blackgrass; [6]) | Blackgrass plant response rating (blackgrass; [9]) | Plant response rating, Ryegrass, Italian (ryegrass, Italian; [5]) | Plant response rating, Ryegrass, Italian (ryegrass, Italian; [6]) | Plant response rating, Ryegrass, Italian (ryegrass, Italian; [7]) | Ryegrass, Italian plant response rating (ryegrass, Italian; [10]) | Plant response rating, Crabgrass, Large (crabgrass, large; [5]) | Plant response rating, Foxtail, Giant (foxtail, giant; [5]) | Plant response rating, Johnsongrass (johnsongrass; [5]) | Plant response rating, Johnsongrass (johnsongrass; [6]) | Plant response rating, Johnsongrass (johnsongrass; [7]) | Johnsongrass plant response rating (johnsongrass; [9]) | Johnsongrass plant response rating (johnsongrass; [10]) | Plant response rating, Nutsedge, Yellow (nutsedge, yellow; [5]) | Plant response rating, Nutsedge, Yellow (nutsedge, yellow; [6]) | Plant response rating, Nutsedge, Yellow (nutsedge, yellow; [7]) | Nutsedge, Yellow plant response rating (nutsedge, yellow; [9]) | Nutsedge, Yellow plant response rating (nutsedge, yellow; [10]) | Plant response rating, Nutsedge, Yellow (nutsedge, yellow; [11]) | Plant response rating (scale of 0 to 100), Nutsedge, Yellow (nutsedge, yellow; Preemergence, 250 g ai/ha) | Ragweed plant response rating (ragweed; [10])
25: Plant response rating (scale of 0 to 100), Ryegrass, Italian (ryegrass, Italian; Preemergence, 250 g ai/ha) | Plant response rating, Nutsedge, Yellow (nutsedge, yellow; [8])
70: Plant response rating, Crabgrass, Large (crabgrass, large; [7]) | Plant response rating, Crabgrass, Large (crabgrass, large; [8]) | Plant response rating, Foxtail, Giant (foxtail, giant; [8])
85: Foxtail, Giant plant response rating (foxtail, giant; [10])
95: Plant response rating, Crabgrass, Large (crabgrass, large; [11]) | Plant response rating (scale of 0 to 100), Crabgrass, Large (crabgrass, large; Preemergence, 250 g ai/ha)
90: Plant response rating, Foxtail, Giant (giant foxtail; [1]) | Plant response rating, Foxtail, Giant (giant foxtail; [2]) | Plant response rating, Foxtail, Giant (giant foxtail; [3]) | Foxtail, Giant plant response rating (giant foxtail; [4]) | Crabgrass, Large plant response rating (crabgrass, large; [9]) | Crabgrass, Large plant response rating (crabgrass, large; [10]) | Plant response rating, Foxtail, Giant (foxtail, giant; [11]) | Plant response rating (scale of 0 to 100), Foxtail, Giant (foxtail, giant; Preemergence, 250 g ai/ha)
50: Plant response rating, Wheat (wheat; 500 g ai/ha, 0 to 100 scale (0 no effect, 100 complete control)) | Plant response rating, Blackgrass (blackgrass; [11])
20: Plant response rating, Ryegrass, Italian (ryegrass, Italian; [11]) | Plant response rating, Ragweed (ragweed; [7])
35: Plant response rating (scale of 0 to 100), Ragweed (ragweed; Preemergence, 250 g ai/ha)
45: Plant response rating (scale of 0 to 100), Blackgrass (blackgrass; Preemergence, 250 g ai/ha) | Plant response rating, Johnsongrass (johnsongrass; [11])
40: Plant response rating, Pigweed (pigweed; [3]) | Pigweed plant response rating (pigweed; [4])
80: Foxtail, Giant plant response rating (foxtail, giant; [9])
10: Plant response rating, Crabgrass, Large (crabgrass, large; [6]) | Plant response rating, Ragweed (ragweed; [5]) | Plant response rating, Ragweed (ragweed; [6])
